“And” between values parts separate entries of the source, which are not always exact repeats. Identical values can stand only once. Like-named read-outs stand apart in the source and are kept apart here.
Experiments:
[1] = target: T1, Oryza sativa P5C synthetase 2 (Oryza sativa subsp. japonica, UniProt O04226); test: NADPH oxidation assay (full forward, physiological reaction of P5C synthetase); settings: for effect on P5CS2 activity (in words): increasing concentrations, range tested; for Vmax / Km: named substrate varied, Lineweaver-Burk plot; for Vmax: others fixed at 20mM glutamate, 30°C, pH 7.5; for concentrations found inhibitory (exceeding): level above which activity is reduced; for Km: read-out: KM(app), others saturating (20mM glutamate, 4mM ATP, 0.4mM NADPH), ATP value from concentrations ≤4mM
T1 sequence (O04226 1-716): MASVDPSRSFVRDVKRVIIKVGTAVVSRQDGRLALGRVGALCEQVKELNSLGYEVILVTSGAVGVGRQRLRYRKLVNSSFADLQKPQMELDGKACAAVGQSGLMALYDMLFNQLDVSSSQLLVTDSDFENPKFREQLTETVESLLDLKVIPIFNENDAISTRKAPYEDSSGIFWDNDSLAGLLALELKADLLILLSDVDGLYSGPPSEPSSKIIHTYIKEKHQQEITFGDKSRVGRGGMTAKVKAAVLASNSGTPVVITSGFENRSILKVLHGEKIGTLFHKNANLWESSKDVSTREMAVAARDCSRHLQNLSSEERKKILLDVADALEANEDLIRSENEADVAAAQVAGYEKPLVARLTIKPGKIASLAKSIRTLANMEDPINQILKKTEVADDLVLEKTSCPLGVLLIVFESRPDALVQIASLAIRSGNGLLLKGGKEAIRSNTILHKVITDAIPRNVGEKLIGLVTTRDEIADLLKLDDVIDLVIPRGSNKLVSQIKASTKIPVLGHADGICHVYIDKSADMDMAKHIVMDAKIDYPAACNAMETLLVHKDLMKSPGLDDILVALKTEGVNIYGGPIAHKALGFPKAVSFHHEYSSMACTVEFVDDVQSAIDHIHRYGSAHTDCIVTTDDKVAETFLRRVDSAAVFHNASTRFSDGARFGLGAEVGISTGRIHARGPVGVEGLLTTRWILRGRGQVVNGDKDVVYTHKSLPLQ
Protocol: The physiological, forward reaction of P5C synthetase was measured by following the glutamate-dependent oxidation of NADPH in the presence of ATP. Aliquots of the purified enzyme preparations (0.5–1μg protein) were incubated in a final volume of 200μl with 20mML-glutamate, 4mM ATP, and 0.4mM NADPH in 50mM Tris-HCl buffer, pH 7.5. When aiming at the evaluation of the effect of chlorides on enzyme activity, Tris-HCl buffer concentration was lowered to 10mM, or replaced with 10mM potassium phosphate buffer, pH 7.5. Incubation proceeded at 30°C for up to 20min. The decrease of absorbance at 340nm was determined at 0.5min intervals against exact blanks in which glutamate had been omitted. Assays were either performed in cuvettes with 0.2 or 1cm pathlength (UVette; Eppendorf, Milan, Italy), or in 96-microwell plates. In the former case, OD340 was determined with a Novaspec plus spectrophotometer (Amersham Biosciences, Milan, Italy) equipped with an UVette adaptor. In the latter case, the plate was equilibrated at 30°C prior to enzyme addition, and absorbance was measured using a Ledetect plate reader (Labexim, Lengau, Austria) equipped with a LED plugin at 340nm. Each sample was carried out in triplicate (technical replications). Each determination was repeated with at least three different enzyme preparations (biological replications). Presented data refer to a single enzyme preparation, and are means±SE over technical replicates. Linear and non-linear regressions of data, as well as kinetic constant values, were computed using Prism 6 for Windows, version 6.03 (GraphPad Software, San Diego, CA, United States).

[2] = tested on: P5CS from V. aconitifolia; settings: cited from earlier work; for Km: glutamyl kinase assay, ref Zhang et al., 1995
P5CS from A. thaliana = tested on: P5CS from A. thaliana; set-up: method as in Parre et al., 2010; settings: half-reaction; ref Parre et al., 2010; cited from earlier work
[3] = substrate: N[C@@H](CCC(=O)O)C(=O)O; test: purified protein, by the assay type; settings: other: named substrate varied, others saturating (20mM glutamate, 4mM ATP, 0.4mM NADPH); Lineweaver-Burk plot; ATP value from concentrations ≤4mM; pH 7.5; 30.0 °C
Protocol: The physiological, forward reaction of P5C synthetase was measured by following the glutamate-dependent oxidation of NADPH in the presence of ATP. […] When aiming at the evaluation of the effect of chlorides on enzyme activity, Tris-HCl buffer concentration was lowered to 10mM, or replaced with 10mM potassium phosphate buffer, pH 7.5. Incubation proceeded at 30°C for up to 20min. The decrease of absorbance at 340nm was determined at 0.5min intervals against exact blanks in which glutamate had been omitted. Assays were either performed in cuvettes with 0.2 or 1cm pathlength (UVette; Eppendorf, Milan, Italy), or in 96-microwell plates. In the former case, OD340 was determined with a Novaspec plus spectrophotometer (Amersham Biosciences, Milan, Italy) equipped with an UVette adaptor. In the latter case, the plate was equilibrated at 30°C prior to enzyme addition, and absorbance was measured using a Ledetect plate reader (Labexim, Lengau, Austria) equipped with a LED plugin at 340nm. Each sample was carried out in triplicate (technical replications). Each determination was repeated with at least three different enzyme preparations (biological replications). […] Linear and non-linear regressions of data, as well as kinetic constant values, were computed using Prism 6 for Windows, version 6.03 (GraphPad Software, San Diego, CA, United States).

[4] = read-out: IC50 (concentration inhibiting activity by 50%), cations, added as chlorides, 10mM potassium phosphate buffer pH 7.5, Mg++ data relative to equimolar NaCl
[5] = IC50 (concentration inhibiting activity by 50%)
[6] = IC50 (concentration inhibiting activity by 50%), 20mM glutamate, 4mM ATP, 0.4mM NADPH, 50mM Tris-HCl pH 7.5, 30°C, non-linear regression
[7] = read-out: IC50 (concentration inhibiting activity by 50%), 20mM glutamate, 4mM ATP, 0.4mM NADPH, 50mM Tris-HCl pH 7.5, 30°C, non-linear regression

N=C(N)NCCC[C@H](N)C(=O)O [arginine]
IC50 [1]: 63.9 mM

[Ca+2] [Ca^++]
effect on P5CS2 activity (in words) [1]: strong inhibitory effect
IC50 [1, 4]: 4.09 mM

O=C(O)[C@@H]1CCCN1 [L-proline]
catalytic rate retained ([1]; 10mM proline): less than 20%
IC50 [1, 5]: 2.91 mM
IC50 ([2]; ref Hu et al., 1992, read-out: concentration giving 50%-inhibition): 6 mM

N[C@@H](CCC(=O)O)C(=O)O [L-Glu, L-glutamate]
Vmax ([1]; 4mM ATP, 0.4mM NADPH): 17.38±0.52 nkat (mg protein)^−1
Km [2]: 3600 µM

NC(=O)C1=CN([C@@H]2O[C@H](COP(=O)(O)OP(=O)(O)OC[C@H]3O[C@@H](n4cnc5c(N)ncnc54)[C@H](O)[C@@H]3O)[C@@H](O)[C@H]2O)C=CC1 [NADH]
utilization as electron donor instead of NADPH ([1]; highest concentration tested 0.5mM): No detectable utilization

O=C(O)C1CCN1 (stereo not drawn) [azetidine-2-carboxylic acid]
IC50 [1, 6]: 11 mM
IC50 relative to proline (fold higher) ([1]; versus IC50 of L-proline): 3.8 fold

O=P(O)(O)C1CCCN1 (stereo not drawn) [phosphonoproline]
IC50 [1, 6]: 42.2 mM
effect on P5CS2 activity (in words) [1]: partial inhibition

Nc1ncnc2c1ncn2[C@@H]1O[C@H](COP(=O)(O)OP(=O)(O)O)[C@@H](O)[C@H]1O [ADP]
concentrations found inhibitory (exceeding) [1]: > 4 mM
IC50 [1, 7]: 9 mM and 9.06 mM

O=P(O)(O)O [HPO4^−−]
concentrations found inhibitory (exceeding) [1]: higher than 20 mM

NC(=O)CC[C@H](N)C(=O)O [glutamine]
IC50 [1]: 89.7 mM
concentrations found inhibitory (exceeding) [1]: exceeding 10 mM

NC(=O)c1ccc[n+]([C@@H]2O[C@H](COP(=O)([O-])OP(=O)(O)OC[C@H]3O[C@@H](n4cnc5c(N)ncnc54)[C@H](O)[C@@H]3O)[C@@H](O)[C@H]2O)c1 [NAD^+]
effect on P5CS2 activity (in words) [1]: completely ineffective

O=C(O)[C@@H]1CCCCN1 [Pipecolate, pipecolic acid]
effect on P5CS2 activity (in words) [1]: completely ineffective

Cl [chloride anions]
stimulation of P5CS2 activity ([1]; chlorides in the 10–100mM range): up to 40%
concentration range with stimulatory effect ([1]; chlorides of various cations): 10 to 100 mM

NC(=O)C1=CN([C@@H]2O[C@H](COP(=O)(O)OP(=O)(O)OC[C@H]3O[C@@H](n4cnc5c(N)ncnc54)[C@H](OP(=O)(O)O)[C@@H]3O)[C@@H](O)[C@H]2O)C=CC1 [NADPH]
Vmax ([1]; 4mM ATP, 0.4mM NADPH): 18.36±0.64 nkat (mg protein)^−1
Km [1]: 45 ± 4 µM

O=C(O)[C@H]1CCCN1 [D-proline]
effect on P5CS2 activity up to 100mM (in words) [1]: unable to interfere

[Na+] [sodium cations]
concentrations found inhibitory (exceeding) [1]: exceeding 100 mM

NC(=O)c1ccc[n+]([C@@H]2O[C@H](COP(=O)([O-])OP(=O)(O)OC[C@H]3O[C@@H](n4cnc5c(N)ncnc54)[C@H](OP(=O)(O)O)[C@@H]3O)[C@@H](O)[C@H]2O)c1 [NADP^+]
IC50 [1, 7]: 0.4 mM and 0.389 mM

NC(=O)C[C@H](N)C(=O)O [Asparagine]
effect on P5CS2 activity up to 100mM (in words) [1]: ineffective

O=C(O)CCC(=O)C(=O)O [α-ketoglutarate]
effect on P5CS2 activity up to 100mM (in words) [1]: ineffective

NCCC[C@H](N)C(=O)O [ornithine]
IC50 [1, 5]: 52.6 mM
concentrations found inhibitory (exceeding) [1]: exceeding 2 mM

O=C(O)[C@@H]1CC(O)CN1 (stereo partly drawn) [L-4-hydroxyproline]
IC50 [1, 6]: 89.5 mM
effect on P5CS2 activity (in words) [1]: partial inhibition

O=C(O)C1CCC=N1 (stereo not drawn) [P5C, δ^1-pyrroline-5-carboxylate]
effect on P5CS2 activity (in words) [1]: did not exert any significant effect

O=P(O)(O)O [inorganic phosphate]
effect on P5CS2 activity (in words) [1]: did not exert any significant effect

Nc1ncnc2c1ncn2[C@@H]1O[C@H](COP(=O)(O)OP(=O)(O)OP(=O)(O)O)[C@@H](O)[C@H]1O [ATP]
concentrations found inhibitory (exceeding) [1]: exceeding 4 mM
Vmax ([1]; 4mM ATP, 0.4mM NADPH): 17.96±0.46 nkat (mg protein)^−1
Ki ([1]; read-out: KI value for ATP (substrate inhibition), fit to substrate inhibition model, 20mM glutamate, 0.4mM NADPH): 11.6 ± 5.1 mM
Km [1]: 760 µM and 764 µM
Km [2]: 2700 µM
Km (P5CS from A. thaliana): 1500 µM

[Mg+2] [Mg^++]
inhibition of activity ([1]; Mg++ ions at 20mM): 25%
effect on P5CS2 activity (in words) [1]: strong inhibitory effect
IC50 [1, 4]: 34.8 mM

B1: Oryza sativa P5C synthetase 2 (Oryza sativa Japonica Group) (protein)
chain: T1 sequence (O04226 1-716)
Km [3]: 2690 ± 190 µM
